Test results taken from PubChem BioAssay AID1159558 (GlaxoSmithKline (GSK), 2015).
Activity calls are given as the source filed them.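 The calls were made as follows: active = IC50 against T. cruzi CYP51 below a set limit; inactive = the rest.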

Target: Sterol 14-alpha demethylase (Trypanosoma cruzi (strain CL Brener)) (UniProt Q7Z1V1)
Experiment: TcCYP51 inhibitors, dose response, mechanism study for T. cruzi antiparasitic project, biochemical, recombinant enzyme (AID 1159558);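 also: enzyme in bacterial membranes with Anopheles gambiae CYP reductase and cytochrome b5 partners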
Details: recombinant T. cruzi CYP51, BOMCC fluorescence

Sterol 14-alpha demethylase (Trypanosoma cruzi (strain CL Brener)), sequence (Q7Z1V1 whole entry, looked up): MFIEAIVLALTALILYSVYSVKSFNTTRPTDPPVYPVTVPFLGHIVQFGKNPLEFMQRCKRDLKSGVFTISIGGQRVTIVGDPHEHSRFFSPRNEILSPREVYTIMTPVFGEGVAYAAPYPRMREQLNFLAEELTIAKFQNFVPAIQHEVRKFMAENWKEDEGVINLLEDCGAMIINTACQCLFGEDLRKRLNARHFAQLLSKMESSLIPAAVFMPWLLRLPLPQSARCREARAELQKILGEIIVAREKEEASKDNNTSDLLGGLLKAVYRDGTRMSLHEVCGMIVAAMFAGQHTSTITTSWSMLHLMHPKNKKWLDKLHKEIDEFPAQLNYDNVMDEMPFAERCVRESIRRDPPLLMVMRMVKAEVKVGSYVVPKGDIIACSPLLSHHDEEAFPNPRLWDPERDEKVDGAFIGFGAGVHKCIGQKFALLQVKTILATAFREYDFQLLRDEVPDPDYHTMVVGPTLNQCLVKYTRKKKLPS

| IC50 | Compound |
| --- | --- |
| 1.6 µM | CNc1nc(C)nc(N2CCc3cc(C(=O)NCc4ccc(-c5nccn5C)cc4Cl)ccc32)n1 |
| > 100 µM (inactive) | CNc1c(C(N)=O)c(-c2ccc3scnc3c2)nn1CC(F)(F)F |
| 50 µM | COc1ccc(C2CC(c3ccccc3Cl)=NN2C(=O)CNC(=O)C2CCC2)cc1 (stereo not drawn) |
| > 100 µM (inactive) | O=C(Nc1ccc(Br)cn1)c1ccc(Cn2cnc([N+](=O)[O-])n2)cc1 |
| 0.16 µM | CN(Cc1nc2ccccc2s1)C(=O)C=Cc1cc2ccccc2o1 |
| 0.032 µM | CNc1cc(Cn2c(C(=O)c3cc(C)cc(Cl)c3)c(C(C)C)c(=O)[nH]c2=O)ccn1 |
| 1.3 µM | Cc1ccc(NC(=O)c2ccnc(N3CCCC3)c2)cc1-c1ccsc1C(N)=O |
| 5 µM | CC(=O)NCCNc1cc(-c2ccnc(Nc3cccc(Cl)c3)n2)ccn1 |
| 1.3 µM | COc1ccc2ncc(F)c(CCN3CC[C@@H](NC(=O)c4cc5c(s4)CCC5)[C@@H](O)C3)c2n1 |
| 0.079 µM | c1cncc(CN(Cc2ccco2)Cc2cn[nH]c2-c2cccs2)c1 |
| 7.9 µM | Cc1cc(C#N)c([N+](=O)[O-])cc1Br |
| 13 µM | COc1ccc(C(=O)Nc2c(C)nn(COc3cccc(C(F)(F)F)c3)c2C)cc1 |
| 79 µM | O=C(CN(Cc1ccccn1)Cc1ccccn1)NC1Cc2ccccc2C1 |
| > 100 µM (inactive) | COc1ccc(OC)c2c(=O)c(Cc3ccccc3)c(C)[nH]c12 |
| 32 µM | CNS(=O)(=O)c1ccccc1Nc1nc(Nc2ccnn2C)ncc1Cl |
| > 100 µM (inactive) | COc1ccccc1-c1c(C)[nH]c2nc(N)nc(C)c12 |
| 6.3 µM | CN(C)Cc1cccc(Nc2nccc(-c3ccc(NCCN)c(C#N)c3)n2)c1 |
| > 100 µM (inactive) | Cc1nc2nc(C)c(Cc3ccc(C(C)C)cc3)c(=O)n2[nH]1 |
| 63 µM | CC(=O)Nc1ccc(-c2cnc(N)c(-c3nc4ccc(F)cc4[nH]3)c2)cc1 |
| > 100 µM (inactive) | O=C(COc1ccccc1)Nc1ccccc1C(=O)Nc1nccs1 |
| 0.032 µM | Clc1ccc(Sc2cnccc2N2CCOCC2)cc1 |
| 79 µM | COc1ncc(-c2ccc3nccc(-c4ccncc4)c3c2)cc1NS(C)(=O)=O |
| > 100 µM (inactive) | Cc1[nH]n2c(=O)c3c(nc2c1-c1ccc(F)cc1)CCCC3 |
| 32 µM | CC(c1ccccn1)N(C)Cc1nc2ccccc2n1C(C)C (stereo not drawn) |
| > 100 µM (inactive) | CCc1cc(C(=O)Nc2nccn2-c2ccccc2)cs1 |
| > 100 µM (inactive) | O=C(Nc1ccc(S(=O)(=O)N2CCCC2)cc1)c1ccc([N+](=O)[O-])s1 |

| IC50 | Compound |
| --- | --- |
| 10 µM | COc1ccc(OC)c(NC(=O)c2ccc([N+](=O)[O-])o2)c1 |
| > 100 µM (inactive) | Nc1nc(-c2ccccc2)cc(-c2nc3ncccc3[nH]2)n1 |
| > 100 µM (inactive) | CN(C(=O)Nc1ccc2c(c1)CCN(C1CCC1)CC2)c1ccc(C#N)cc1 |
| 0.1 µM | CNc1cncc(C2CCCN2C(=O)Cc2ccc3ccccc3c2)n1 (stereo not drawn) |
| 13 µM | COc1ccc(CNc2nsc3ccccc23)cc1OC |
| > 100 µM (inactive) | Cc1ccc(S(=O)(=O)Nc2ccc(CN3CCN(C(=O)c4cccc(C#N)c4)CC3)cc2)cc1 |
| 16 µM | Cc1nc(-c2nc(NCc3ccc(Cl)cc3)c3cccnc3c2O)n[nH]1 |
| 6.3 µM | O=C(N[C@H](CO)c1ccccc1)c1ccc(-c2c[nH]c3nccc(C(F)(F)F)c23)s1 |
| 13 µM | CCCCN(C(=O)c1ccc(NC(=O)C(C)C)cc1)c1ccccc1 |
| > 100 µM (inactive) | COc1ccc(C(=O)Nc2ccc(NC(=O)CO)cc2)cc1 |
| > 100 µM (inactive) | CCN(C)Cc1ccc(N2CCC(NS(=O)(=O)c3ccc4c(c3)CCO4)CC2)nc1 |
| 0.79 µM | COc1cnc2ccc(=O)n(CCN3CCC(NC(=O)Cc4ccc(Cl)c(Cl)c4)CC3)c2c1 |
| 20 µM | CC(C)(C)CC(=O)NCCc1csc(-c2ccc(F)cc2)n1 |
| > 100 µM (inactive) | Cc1ccc2sc(NC(=O)Cn3cnc([N+](=O)[O-])n3)nc2c1 |
| > 100 µM (inactive) | Cc1cccc(NS(=O)(=O)c2ccc3c(c2)C(=O)c2cc(S(=O)(=O)Nc4cccc(C)c4C)ccc2-3)c1C |
| > 100 µM (inactive) | CN1CCCN(C(=O)c2ccc(N3CCCC3)cc2Cl)CC1 |
| 7.9 µM | CCN(Cc1cccs1)C(=O)CSc1nnc(-c2ccc3c(c2)OCO3)o1 |
| 40 µM | C=CC[C@@H]1CC=C[C@@H](C)N1C(=O)CCc1nnc(-c2ccc3c(c2)OCO3)o1 |
| > 100 µM (inactive) | O=C1CN(Cc2ccco2)C2CS(=O)(=O)CC2N1c1ccc(Cl)cc1 (stereo not drawn) |
| > 100 µM (inactive) | Cc1occc1C(=O)Nc1ccccc1C(=O)Nc1nccs1 |
| > 100 µM (inactive) | CN1CCN(c2nc(-c3ccc(Cl)cc3)c3c(N)n(C)nc3n2)CC1 |
| 6.3 µM | N#Cc1cccc(CNc2ccc(-c3cnn(CC4CC4)c(=O)c3C#N)cc2)c1 |
| 63 µM | Cc1ccnc(NS(=O)(=O)c2ccc(NC(=O)c3ccc([N+](=O)[O-])s3)cc2)n1 |
| > 100 µM (inactive) | O=C(Nc1nc(-c2ccc(S(=O)(=O)N3CCOCC3)cc2)cs1)c1ccc([N+](=O)[O-])cc1 |
| > 100 µM (inactive) | O=C(Cn1cnc2cc([N+](=O)[O-])ccc2c1=O)NCCc1ccc(Cl)cc1Cl |
| 0.079 µM | O=C(c1cnn(-c2ccccc2)n1)N1CCCC(n2ccnc2)C1 (stereo not drawn) |

| IC50 | Compound |
| --- | --- |
| 25 µM | O=C(CSc1nnc(-c2ccc3c(c2)OCO3)o1)N(Cc1ccco1)CC(F)(F)F |
| > 100 µM (inactive) | COc1ccc(S(=O)(=O)Nc2ccccc2OC)cc1NC(=O)CCCc1c[nH]c2ccccc12 |
| 0.32 µM | NCc1csc(Nc2cc(Oc3ccccc3)ncn2)n1 |
| 7.9 µM | CC(C)c1sc(Cl)nc1C(=O)NCCc1nc(C(=O)Nc2ccc3c(c2)OCO3)cs1 |
| > 100 µM (inactive) | Cc1c(C#N)c([N+](=O)[O-])nn1Cc1cccc(Cl)c1Cl |
| 13 µM | O=C(CC1(O)C(=O)N(Cc2cccs2)c2ccc(Br)cc21)c1cccnc1 (stereo not drawn) |
| 1.6 µM | CCCCCNC(=O)c1c[nH]c2ccc(S(=O)(=O)N(C)c3ccc(OCC)cc3)cc2c1=O |
| 79 µM | Cc1cc2nc(CN(C)Cc3ncccc3C)[nH]c2cc1C |
| > 100 µM (inactive) | CCCNC(=O)Nc1cccc(-c2nc3ncccc3o2)c1 |
| > 100 µM (inactive) | CNC(=O)C1Cc2ccccc2N1C(=O)Cc1ccccc1 (stereo not drawn) |
| 100 µM | CNC(=O)C1Cc2ccccc2N1C(=O)COc1cccc(OC)c1 (stereo not drawn) |
| 7.9 µM | N#Cc1cccc(Nc2nccc(N3CCC(NS(=O)(=O)c4cccc(C#N)c4)CC3)n2)c1 |
| 0.063 µM | COc1cccc(C(=O)[C@H]2C[C@@H]2CN(Cc2cccnc2)Cc2cccnc2)c1 |
| > 100 µM (inactive) | Cc1cc(Oc2cc(Cl)c(Cl)cc2Cl)n2ncnc2n1 |
| 25 µM | COc1cc(NC(=O)Nc2cccc(CNC(=O)OC3CCCCC3)c2)ccc1-c1cnco1 |
| 0.04 µM | COc1ccc(C)cc1-c1csc(NC(=O)C(C)n2ccnc2)n1 (stereo not drawn) |
| 1 µM | NCC(Cc1ccccc1)NC(=O)c1cnc(-c2c[nH]c3ncccc23)s1 (stereo not drawn) |
| > 100 µM (inactive) | N#Cc1cccc(CN2CCC(c3nc(-c4ccc(C(F)(F)F)nc4)no3)CC2)c1 |
| > 100 µM (inactive) | CNC(=O)C1Cc2ccccc2N1C(=O)Cc1ccc(OC)cc1 (stereo not drawn) |
| > 100 µM (inactive) | CN(Cc1cc2ccccc2s1)c1ncc2c(N)nc(N)nc2n1 |
| 0.02 µM | O=C1CN(C2CCCc3c(OCc4ccncc4)cccc32)C(=O)N1C1CCCCC1 (stereo not drawn) |
| 40 µM | Cn1ccnc1-c1nc(NCc2ccccc2Cl)cc(C2CC2)n1 |
| > 100 µM (inactive) | COCc1cc(Nc2ccccc2)nc(-c2ccccn2)n1 |
| 13 µM | COc1ccc(C2CC(c3ccc(NS(C)(=O)=O)cc3)=NN2C(=O)c2cccs2)cc1OC (stereo not drawn) |
| 40 µM | CN(C)S(=O)(=O)c1ccc(-c2cnc(N)c(-c3nc4ccc(F)cc4[nH]3)c2)cc1 |
| 32 µM | CN(C)S(=O)(=O)c1cccc(C(=O)Nc2nc(-c3ccccn3)cs2)c1 |

| IC50 | Compound |
| --- | --- |
| > 100 µM (inactive) | Cc1c([N+](=O)[O-])c(C(=O)Nc2sc3c(c2C#N)CCC(C)C3)nn1C (stereo not drawn) |
| 0.04 µM | COc1ccc(-c2nc3ccncc3c(=O)n2CCOc2ccccc2)cc1 |
| > 100 µM (inactive) | C=CCOCC1Cn2nc([N+](=O)[O-])nc2O1 (stereo not drawn) |
| 0.25 µM | COc1cccc2sc(CN(C)C(=O)C3CNCCN3c3ccc(F)cc3)c(C)c12 (stereo not drawn) |
| 20 µM | CS(=O)(=O)c1ccccc1C(=O)N(Cc1ccccc1)c1ccccc1 |
| 50 µM | CC(C)(C)CC(=O)NCc1noc(COc2ccccc2)n1 |
| > 100 µM (inactive) | COc1ccc(Cc2nc(-c3ncc4cccnc4c3O)n[nH]2)cc1OC |
| 0.1 µM | CN(Cc1ccc(C(N)=O)cc1)C(c1ccc(F)cc1)c1cccnc1 (stereo not drawn) |
| 0.16 µM | O=C1CSC(c2cccnc2)N1c1ccc(Cl)cc1Cl (stereo not drawn) |
| 25 µM | COc1ccccc1C1CC(c2ccc(NS(C)(=O)=O)cc2)=NN1C(=O)c1cccs1 (stereo not drawn) |
| 0.079 µM | O=C(NCCc1ccccc1Cl)c1cccn1-c1cccnc1 |
| 7.9 µM | C=CCN(Cc1cccs1)C(=O)CSc1nnc(-c2ccc3c(c2)OCO3)o1 |
| 25 µM | CNS(=O)(=O)c1ccccc1Nc1nc(Nc2cc(C)nn2C)ncc1Cl |
| 3.2 µM | O=C(CN1CCN(c2ccccn2)CC1)Nc1cc(S(=O)(=O)N2CCCCCC2)ccc1Cl |
| 79 µM | Nc1cc(-c2ccc3ncnc(N4CCOCC4)c3c2)cnc1N |
| 7.9 µM | COc1ncc(-c2ccc3nccc(-c4ccncc4)c3c2)cc1NS(=O)(=O)C1CC1 |
| > 100 µM (inactive) | CN(C)Cc1ccc(N2CCC(NS(=O)(=O)c3ccc(Cl)cc3)CC2)cc1 |
| > 100 µM (inactive) | COc1cccc(-c2c(C)nn(-c3nc(N)nc(-c4ccccn4)n3)c2N)c1 |
| > 100 µM (inactive) | Nc1nc(-c2ccccn2)nc(-n2nc(-c3ccccc3)cc2N)n1 |
| > 100 µM (inactive) | O=C(NCC1CCCCC1)c1cnns1 |
| 4 µM | O=C(CC1(O)C(=O)N(Cc2ccccc2)c2ccc(Br)cc21)c1cccnc1 (stereo not drawn) |
| > 100 µM (inactive) | CC(C)C[C@H](NC(=O)c1csc(-c2cccs2)n1)C(=O)NC1(C#N)CC1 |
| 6.3 µM | CC(=O)Nc1ccc(-c2csc(NC(=O)c3ccc([N+](=O)[O-])s3)n2)cc1 |

| Compound | IC50 |
| --- | --- |
| CNC(=O)Oc1ccc(C(=O)NCc2ccccc2)cc1OC(=O)NC | > 100 µM (inactive) |
| CN1CCC(N(C)c2nccc(N3CCN(C(=O)c4cccc(-c5cccnc5)c4)CC3)n2)CC1 | 1.6 µM |
